# What was measured:
# FKBP52 = biological target: T1, FKBP52 (Homo sapiens, UniProt Q02790); experiment: Fluorescence polarization binding assay, FK1-domain of FKBP52WT with tracer F2 (selectivity FKBP51 vs. FKBP52); conditions: selectivity factor over FKBP52; compounds B01-C25
# T1 construct: Purified FK1-domains of FKBP51WT (4.5 nM) with F4 (3 nM), FKBP52WT (400 nM) with F2 (20 nM); implied by Ni-NTA purification) (N); made in house; host or cells: E. coli BL21(DE3)pLysS
# T1 sequence (Q02790 50-138 limits assumed): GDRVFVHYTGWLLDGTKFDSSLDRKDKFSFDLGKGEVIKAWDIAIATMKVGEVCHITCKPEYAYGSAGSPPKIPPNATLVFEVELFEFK
# Procedure: (§1) The target protein was also diluted in this assay buffer at double the highest concentration required for the final sample. This protein stock was used for a 1:1 serial dilution.
# (§2) The inventive compound was dissolved in DMSO to reach a 100-times concentrated stock solution. This was used for a 1:1 serial dilution in DMSO.
# (§3) For FKBP12, −51, and −52 the binding assays were performed in duplicates in the plate format.
# (§4) The competition curves were analyzed by using SigmaPlot9. Data were fitted to a four parameter logistic curve to deduce the IC50 values. […] A=(Amax−Amin)/[L]t×(([L]t×((2×((Klig+Kcomp+[L]t+[I]t−[R]t)^2−3×(Kcomp×([L]t−[R]t)+Klig×([I]t−[R]t)+Klig×Kcomp))^0.5×COS(ARCCOS((−2×(Klig+Kcomp+[L]t+[I]t−[R]t)^3+9×(Klig+Kcomp+[L]t+[I]t−[R]t)×(Kcomp×([L]t−[R]t)+Klig×([I]t−[R]t)+Klig×Kcomp)−27×(−1×Klig×Kcomp×[R]t))/(2×((((Klig+Kcomp+[L]t+[I]t−[R]t)^2−3×(Kcomp×([L]t−[R]t)+Klig×([I]t−[R]t)+Klig×Kcomp))^3)^0.5)))/3))−(Klig+Kcomp+[L]t+[I]t−[R]t)))/((3×Klig)+((2×((Klig+Kcomp+[L]t+[I]t−[R]t)^2−3×(Kcomp×([L]t−[R]t)+Klig×([I]t−[R]t)+Klig×Kcomp))^0.5×COS(ARCCOS((−2×(Klig+Kcomp+[L]t+[I]t−[R]t)^3+9×(Klig+Kcomp+[L]t+[I]t−[R]t)×(Kcomp×([L]t−[R]t)+Klig×([I]t−[R]t)+Klig×Kcomp)−27×(−1×Klig×Kcomp×[R]t))/(2×((((Klig+Kcomp+[L]t+[I]t−[R]t)^2−3×(Kcomp×([L]t−[R]t)+Klig×([I]t−[R]t)+Klig×Kcomp))^3)^0.5)))/3))−(Klig+Kcomp+[L]t+[I]t−[R]t))))+Amin
# (§5) In this equation Klig and Kcomp stand for the Kd values of the used tracer or competing inhibitor, [I]t is referring to the total concentration of the titrated inhibitor.
# The Selectivity of the Compounds was Classified by Ki(FKBP51)/Ki(FKBP52)
# (§6) Inhibition constants were measured in a fluorescence polarization binding assay by titrating the compounds.
# FKBP51 = biological target: T2, FKBP51 (Homo sapiens, UniProt Q13451); experiment: Fluorescence polarization binding assay, FK1-domain of FKBP51WT with tracer F4; parameters: Purified FK1-domains of FKBP51WT (4.5 nM) with F4 (3 nM), FKBP52WT (400 nM) with F2 (20 nM); made in house; host or cells: E. coli BL21(DE3)pLysS; conditions: compounds B01-C25; read-out: Affinity(Ki) for FKBP51
# T2 sequence (Q13451 42-130 limits assumed): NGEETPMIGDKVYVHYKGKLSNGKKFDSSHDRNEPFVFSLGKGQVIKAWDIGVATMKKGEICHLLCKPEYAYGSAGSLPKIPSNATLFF
# Procedure: as §1, §2, §3, §4, §5, §6
SMILES,Ki(FKBP51)/Ki(FKBP52) (FKBP52),Ki (FKBP51)
"CC[C@H](C)[C@H](NC(=O)[C@@H]1CCCCN1C(=O)[C@H](c1cc(OC)c(OC)c(OC)c1)C1CCCCC1)C(N)=O [Compound B14, (S)-N-((2S,3S)-1-amino-3-methyl-1-oxopentan-2-yl)-1-((S)-2-cyclohexyl-2-(3,4,5-trimethoxyphenyl)acetyl)piperidine-2-carboxamide]",++ (>50 ++),1 to 10 µM
"CC[C@@H](C)[C@@H](NC(=O)[C@@H]1CCCCN1C(=O)[C@H](c1cc(OC)c(OC)c(OC)c1)C1CCCCC1)C(N)=O [Compound B15, (S)-N-((2R,3R)-1-amino-3-methyl-1-oxopentan-2-yl)-1-((S)-2-cyclohexyl-2-(3,4,5-trimethoxyphenyl)acetyl)piperidine-2-carboxamide]",++ (>50 ++),1 to 10 µM
"COc1cc([C@@H](C(=O)N2CCCC[C@H]2C(=O)N[C@H](C(N)=O)C2CCCCC2)C2CCCCC2)cc(OC)c1OC [Compound B18, (S)-N-((S)-2-amino-1-cyclohexyl-2-oxoethyl)-1-((S)-2-cyclohexyl-2-(3,4,5-trimethoxyphenyl)acetyl)piperidine-2-carboxamide]",++ (>50 ++),1 to 10 µM
"COc1cc([C@@H](C(=O)N2CCCC[C@H]2C(=O)N[C@H](CO)C(N)=O)C2CCCCC2)cc(OC)c1OC [Compound B21, (S)-N-((R)-1-amino-3-hydroxy-1-oxopropan-2-yl)-1-((S)-2-cyclohexyl-2-(3,4,5-trimethoxyphenyl)acetyl)piperidine-2-carboxamide]",++ (>50 ++),1 to 10 µM
"COc1cc([C@@H](C(=O)N2CCCC[C@H]2C(=O)N[C@@H](CO)C(N)=O)C2CCCCC2)cc(OC)c1OC [Compound B22, (S)-N-((S)-1-amino-3-hydroxy-1-oxopropan-2-yl)-1-((S)-2-cyclohexyl-2-(3,4,5-trimethoxyphenyl)acetyl)piperidine-2-carboxamide]",++ (>50 ++),1 to 10 µM
"COc1cc([C@@H](C(=O)N2CCCC[C@H]2C(=O)N[C@@H](CCC(N)=O)C(N)=O)C2CCCCC2)cc(OC)c1OC [Compound B23, (S)-2-((S)-1-((S)-2-cyclohexyl-2-(3,4,5-trimethoxyphenyl)acetyl)piperidine-2-carboxamido)pentanediamide]",+ (>5 +),10 to 50 µM
"COc1cc([C@@H](C(=O)N2CCCC[C@H]2C(=O)N[C@H](CCC(N)=O)C(N)=O)C2CCCCC2)cc(OC)c1OC [Compound B24, (R)-2-((S)-1-((S)-2-cyclohexyl-2-(3,4,5-trimethoxyphenyl)acetyl)piperidine-2-carboxamido)pentanediamide]",++ (>50 ++),1 to 10 µM
"COc1cc([C@@H](C(=O)N2CCCC[C@H]2C(=O)NC(C)(C)CC(N)=O)C2CCCCC2)cc(OC)c1OC [Compound B25, (S)-N-(4-amino-2-methyl-4-oxobutan-2-yl)-1-((S)-2-cyclohexyl-2-(3,4,5-trimethoxyphenyl)acetyl)piperidine-2-carboxamide]",+++ (>500 +++),1 to 10 µM
"COc1cc([C@@H](C(=O)N2CCCC[C@H]2C(=O)NC2(C(N)=O)CC2)C2CCCCC2)cc(OC)c1OC [Compound B26, (S)-N-(1-carbamoylcyclopropyl)-1-((S)-2-cyclohexyl-2-(3,4,5-trimethoxyphenyl)acetyl)piperidine-2-carboxamide]",++ (>50 ++),10 to 50 µM
"COc1cc([C@@H](C(=O)N2CCCC[C@H]2C(=O)NC2(C(N)=O)CCC2)C2CCCCC2)cc(OC)c1OC [Compound B27, (S)-N-(1-carbamoylcyclobutyl)-1-((S)-2-cyclohexyl-2-(3,4,5-trimethoxyphenyl)acetyl)piperidine-2-carboxamide]",++ (>50 ++),1 to 10 µM
"COc1cc([C@@H](C(=O)N2CCCC[C@H]2C(=O)NC2(C(N)=O)CCCC2)C2CCCCC2)cc(OC)c1OC [Compound B28, (S)-N-(1-carbamoylcyclopentyl)-1-((S)-2-cyclohexyl-2-(3,4,5-trimethoxyphenyl)acetyl)piperidine-2-carboxamide]",++++ (>5000 ++++),0.1 to 1 µM
"COc1cc([C@@H](C(=O)N2CCCC[C@H]2C(=O)NCCC(N)=O)C2CCCCC2)cc(OC)c1OC [Compound B29, (S)-N-(3-amino-3-oxopropyl)-1-((S)-2-cyclohexyl-2-(3,4,5-trimethoxyphenyl)acetyl)piperidine-2-carboxamide]",++ (>50 ++),1 to 10 µM
"COc1cc([C@@H](C(=O)N2CCCC[C@H]2C(=O)N[C@@H](CC(C)C)C(N)=O)C2CCCCC2)cc(OC)c1OC [Compound B30, (S)-N-((S)-1-amino-4-methyl-1-oxopentan-2-yl)-1-((S)-2-cyclohexyl-2-(3,4,5-trimethoxyphenyl)acetyl)piperidine-2-carboxamide]",++ (>50 ++),1 to 10 µM
"COc1cc([C@@H](C(=O)N2CCCC[C@H]2C(=O)NC2(C(N)=O)CCCCC2)C2CCCCC2)cc(OC)c1OC [Compound B31, (S)-N-(1-carbamoylcyclohexyl)-1-((S)-2-cyclohexyl-2-(3,4,5-trimethoxyphenyl)acetyl)piperidine-2-carboxamide]",++ (>50 ++),1 to 10 µM
COc1cc([C@@H](C(=O)N2CCCC[C@H]2C(=O)NC2(C(N)=O)CCOCC2)C2CCCCC2)cc(OC)c1OC [Compound B32],++ (>50 ++),10 to 50 µM
"COc1cc([C@@H](C(=O)N2CCCC[C@H]2C(=O)NC2(C(=O)NCC(N)=O)CCCC2)C2CCCCC2)cc(OC)c1OC [Compound B33, (S)-N-(1-((2-amino-2-oxoethyl)carbamoyl)cyclopentyl)-1-((S)-2-cyclohexyl-2-(3,4,5-trimethoxyphenyl)acetyl)piperidine-2-carboxamide]",+++ (>500 +++),1 to 10 µM
"COc1cc([C@@H](C(=O)N2CCCC[C@H]2C(=O)N[C@H](Cc2c[nH]cn2)C(N)=O)C2CCCCC2)cc(OC)c1OC [Compound B34, (S)-N-((R)-1-amino-3-(1H-imidazol-4-yl)-1-oxopropan-2-yl)-1-((S)-2-cyclohexyl-2-(3,4,5-trimethoxyphenyl)acetyl)piperidine-2-carboxamide]",++ (>50 ++),10 to 50 µM
"COc1cc([C@@H](C(=O)N2CCCC[C@H]2C(=O)N[C@@H](Cc2c[nH]cn2)C(N)=O)C2CCCCC2)cc(OC)c1OC [Compound B35, (S)-N-((S)-1-amino-3-(1H-imidazol-4-yl)-1-oxopropan-2-yl)-1-((S)-2-cyclohexyl-2-(3,4,5-trimethoxyphenyl)acetyl)piperidine-2-carboxamide]",+ (>5 +),10 to 50 µM
"COC(=O)[C@@H]1CCCCN1C(=O)[C@H](c1cc(OC)c(OC)c(OC)c1)C1CCCCC1 [Compound C01, (S)-methyl 1-((S)-2-cyclohexyl-2-(3,4,5-trimethoxyphenyl)acetyl)piperidine-2-carboxylate]",++ (>50 ++),1 to 10 µM
"CCOC(=O)[C@@H]1CCCCN1C(=O)[C@H](c1cc(OC)c(OC)c(OC)c1)C1CCCCC1 [Compound C02, (S)-ethyl 1-((S)-2-cyclohexyl-2-(3,4,5-trimethoxyphenyl)acetyl)piperidine-2-carboxylate]",++ (>50 ++),1 to 10 µM
"CCCOC(=O)[C@@H]1CCCCN1C(=O)[C@H](c1cc(OC)c(OC)c(OC)c1)C1CCCCC1 [Compound C03, (S)-propyl 1-((S)-2-cyclohexyl-2-(3,4,5-trimethoxyphenyl)acetyl)piperidine-2-carboxylate]",+++ (>500 +++),1 to 10 µM

# — patent US9845292B2 (Max-Planck-Gesellschaft zur Förderung der Wissenschaften …, priority 2013, dated 2017)
